Measurements from patent publication US20040229930A1, “Formulations comprising a basic indolinone compound” (Pharmacia Italia S.p.A., priority 2002, published 2004).

Test: Bulk density determination of granules / drug substance
Format: physicochemical
Description: Generally, bulk density is the weight of a unit volume of material. Bulk density is also known as “apparent density.” Bulk density is typically expressed as a weight:volume ratio, for example, kilograms per liter (Kg/L) or grams per cubic centimeter (g/cm[…]). Bulk desntiy of a material can be measured by techniques that are well known in the art, by measuring the weight and volume of the material. See the Examples section of this application for exemplary techniques for measurement of bulk density.
The tap and bulk density determinations are performed as follows:
(a) A 250 mL glass cylinder is filled with formulation granules to the 100-200 mL volume mark.
(b) The mass of the cyclinder is recorded and the bulk density is determined by calculating the ratio of the mass of the formulation granules to the volume of the formulation granules.

SMILES | bulk density (salt by itself) | bulk density (maleate salt by itself) [kg/L]
CCN(CC)CCNC(=O)c1c(C)[nH]c(/C=C2\C(=O)Nc3ccc(F)cc32)c1C [5-(5-fluoro-2-oxo-1,2-dihydro-indol-3-ylidenemethyl)-2,4-dimethyl-1H-pyrrole-3-carboxylic acid (2-diethylamino-ethyl)-amide] | about 0.11±0.1 | 
Cc1[nH]c(/C=C2\C(=O)Nc3ccc(F)cc32)c(C)c1C(=O)NCC(O)CN1CCOCC1 (centres unmarked) [5-[(Z)-(5-fluoro-2-oxo-1,2-dihydro-3H-indol-3-ylidene)methyl]-N-[2-hydroxy-3-morpholin-4-ylpropyl]-2,4-dimethyl-1H-pyrrole-3-carboxamide] |  | 0.05 to 0.07
